Results published in US12091426B2, “Bifunctional degraders of hematopoietic progenitor kinase and therapeutic uses thereof” (Nurix Therapeutics, Inc., priority 2021, dated 2024).

Molecular target: T1, HPK1 (Homo sapiens, UniProt Q92918)
T1 construct: A HiBiT tag was introduced by CRISPR on the N terminus of HPK1 in Jurkat cells; host or cells: Jurkat cells (ATCC TIB-152), monoclonal line with CRISPR knock-in of HiBiT at the endogenous HPK1 locus
Assay: HPK1 Cellular HiBit Degradation Assay
Format: cell-based
Details: HiBiT HPK1 Jurkat cells, 24 hrs; for DC50: concentration at which 50% of HPK1 was remaining, read-out: DC50 Category; for Dmax: Jurkat, maximum degradation vs DMSO vehicle control, read-out: Dmax Category
In short: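 Jurkat cells with CRISPR knock-in N-terminal HiBiT-HPK1 were treated with CTMs (11-point, 3.16-fold, 10 uM to 0.1 nM final) for 24 hrs at 37° C. HiBiT lytic luminescence, with parental Jurkat as background and DMSO as 100%, gave % HPK1 remaining; four-parameter fit yielded DC50 and Dmax (100 minus lowest % remaining).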

T1 sequence (Q92918 whole entry): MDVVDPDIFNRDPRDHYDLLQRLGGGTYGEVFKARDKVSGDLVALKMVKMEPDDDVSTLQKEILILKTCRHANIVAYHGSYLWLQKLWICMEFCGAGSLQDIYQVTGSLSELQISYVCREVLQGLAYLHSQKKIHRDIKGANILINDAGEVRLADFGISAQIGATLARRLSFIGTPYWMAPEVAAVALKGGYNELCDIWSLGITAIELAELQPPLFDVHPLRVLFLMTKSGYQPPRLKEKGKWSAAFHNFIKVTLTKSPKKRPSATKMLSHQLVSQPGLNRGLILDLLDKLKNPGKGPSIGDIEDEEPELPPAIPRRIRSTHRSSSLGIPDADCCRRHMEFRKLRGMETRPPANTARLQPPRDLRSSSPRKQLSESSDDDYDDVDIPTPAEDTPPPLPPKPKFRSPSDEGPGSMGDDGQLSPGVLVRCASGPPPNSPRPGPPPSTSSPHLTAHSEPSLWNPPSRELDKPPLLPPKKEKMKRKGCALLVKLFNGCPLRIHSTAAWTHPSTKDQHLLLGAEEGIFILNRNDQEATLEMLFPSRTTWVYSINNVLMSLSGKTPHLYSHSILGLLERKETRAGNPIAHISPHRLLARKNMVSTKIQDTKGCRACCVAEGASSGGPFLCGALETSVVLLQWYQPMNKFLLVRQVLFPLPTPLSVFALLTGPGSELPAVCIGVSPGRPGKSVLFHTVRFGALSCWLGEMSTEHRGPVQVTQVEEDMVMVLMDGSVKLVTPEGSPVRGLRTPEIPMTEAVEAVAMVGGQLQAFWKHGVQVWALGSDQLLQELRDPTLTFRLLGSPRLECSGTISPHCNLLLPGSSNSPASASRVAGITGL

DC50 [nM]	Dmax [%]	Compound
500 to 1000	50 to 70	CC(C)n1cnc2cc(-c3ccc4c(c3)N([C@H]3C[C@@H](N5CCCCC5)C3)C(=O)C43CCN(C(=O)C[C@@H]4CCN(C(=O)[C@H]5CC[C@@H](Nc6cccc7c6C(=O)N(C6CCC(=O)NC6=O)C7=O)CC5)C4)CC3)nc(NC3CC3)c21 (mixture of isomers) [Example 35, 2-[(3RS)-2,6-dioxopiperidin-3-yl]-4-{[(1R,4R)-4-[(3S)-3-(2-{6-[4-(cyclopropylamino)-3-(propan-2-yl)-3H-imidazo[4,5-c]pyridin-6-yl]-2-oxo-1-[(1S,3S)-3-(piperidin-1-yl)cyclobutyl]-1,2-dihydrospiro[indole-3,4′-piperidin]-1′-yl}-2-oxoethyl)pyrrolidine-1-carbonyl]cyclohexyl]amino}-2,3-dihydro-1H-isoindole-1,3-dione]
500 to 1000	50 to 70	CC(C)n1cnc2cc(-c3ccc4c(c3)N([C@H]3C[C@@H](N5CCCCC5)C3)C(=O)C43CCN(C(=O)c4ccc(C(=O)N(C)C5CCN(c6ccc(C7CCC(=O)NC7=O)cn6)CC5)cc4)CC3)nc(Nc3ccccc3F)c21 (mixture of isomers) [Example 141, N-(1-{5-[(3RS)-2,6-dioxopiperidin-3-yl]pyridin-2-yl}piperidin-4-yl)-4-[(6-{4-[(2-Fluorophenyl)amino]-3-(propan-2-yl)-3H-imidazo[4,5-c]pyridin-6-yl}-2-oxo-1-[(1S,3S)-3-(piperidin-1-yl)cyclobutyl]-1,2-dihydrospiro[indole-3,4′-piperidin]-1′-yl)carbonyl]-N-methylbenzamide]
< 100	70 to 85	CC(C)n1cnc2cc(-c3ccc4c(c3)N([C@H]3C[C@@H](N5CCCCC5)C3)C(=O)C43CCN(C(=O)[C@H]4CN(C(=O)C5CCN(c6ccc(C7CCC(=O)NC7=O)cc6)CC5)CC4(C)C)CC3)nc(NC3CC3)c21 (mixture of isomers) [Example 252, (3RS)-3-(4-{4-[(4R)-4-({6-[4-(cyclopropylamino)-3-(propan-2-yl)-3H-imidazo[4,5-c]pyridin-6-yl]-2-oxo-1-[(1S,3S)-3-(piperidin-1-yl)cyclobutyl]-1,2-dihydrospiro[indole-3,4′-piperidin]-1′-yl}carbonyl)-3,3-dimethylpyrrolidine-1-carbonyl]piperidin-1-yl}phenyl)piperidine-2,6-dione]
< 100	70 to 85	CC(C)n1cnc2cc(-c3ccc4c(c3)N([C@H]3C[C@@H](N5CCCCC5)C3)C(=O)C43CCN(C(=O)C4(C)CCN(C(=O)C5CCN(c6ccc(C7CCC(=O)NC7=O)cn6)CC5)CC4)CC3)nc(NC3CC4(COC4)C3)c21 (stereo partly drawn) [Example 177, 3-(6-{4-[4-methyl-4-({6-[4-({2-oxaspiro[3.3]heptan-6-yl}amino)-3-(propan-2-yl)-3H-imidazo[4,5-c]pyridin-6-yl]-2-oxo-1-[(1S,3S)-3-(piperidin-1-yl)cyclobutyl]-1,2-dihydrospiro[indole-3,4′-piperidin]-1′-yl}carbonyl)piperidine-1-carbonyl]piperidin-1-yl}pyridin-3-yl)piperidine-2,6-dione]
< 100	50 to 70	CC(C)n1cnc2cc(-c3ccc4c(c3)N([C@H]3C[C@@H](N5CCCCC5)C3)C(=O)C43CCN(C(=O)C4CCN(C(=O)[C@H]5CC[C@H](Cn6cc7cc(C8CCC(=O)NC8=O)ccc7n6)CC5)CC4)CC3)nc(Nc3ccccc3F)c21 (mixture of isomers) [Example 63, (3RS)-3-(2-{[(1R,4R)-4-{4-[(6-{4-[(2-fluorophenyl)amino]-3-(propan-2-yl)-3H-imidazo[4,5-c]pyridin-6-yl}-2-oxo-1-[(1S,3S)-3-(piperidin-1-yl)cyclobutyl]-1,2-dihydrospiro[indole-3,4′-piperidin]-1′-yl)carbonyl]piperidine-1-carbonyl}cyclohexyl]methyl}-2H-indazol-5-yl)piperidine-2,6-dione]
< 100	70 to 85	CC(C)n1cnc2cc(-c3ccc4c(c3)N([C@H]3C[C@@H](N5CCCCC5)C3)C(=O)C43CCN(C(=O)C4CCN(C(=O)CC5CCN(c6ccc(C7CCC(=O)NC7=O)cn6)CC5)CC4)CC3)nc(Nc3ccccc3F)c21 (stereo partly drawn) [Example 92, 3-(6-(4-(2-(4-(6-(4-((2-fluorophenyl)amino)-3-isopropyl-3H-imidazo[4,5-c]pyridin-6-yl)-2-oxo-1-((1S,3S)-3-(piperidin-1-yl)cyclobutyl)spiro[indoline-3,4′-piperidine]-1′-carbonyl)piperidin-1-yl)-2-oxoethyl)piperidin-1-yl)pyridin-3-yl)piperidine-2,6-dione]
< 100	> 85	CC(C)n1cnc2cc(-c3ccc4c(c3)N([C@H]3C[C@@H](N5CCCCC5)C3)C(=O)C43CCN(C(=O)C4(C)CCN(C(=O)[C@H]5CC[C@H](Oc6ccc(C7CCC(=O)NC7=O)cc6)CC5)CC4)CC3)nc(Nc3ccccc3F)c21 (mixture of isomers) [Example 102, (3RS)-3-(4-{[(1R,4R)-4-{4-[(6-{4-[(2-fluorophenyl)amino]-3-isopropylimidazo[4,5-c]pyridin-6-yl}-2-oxo-1-[(1S,3S)-3-(piperidin-1-yl)cyclobutyl]spiro[indole-3,4′-piperidin]-1′-yl)carbonyl]-4-methylpiperidine-1-carbonyl}cyclohexyl]oxy}phenyl)piperidine-2,6-dione]
100 to 500	50 to 70	CC(C)n1cnc2cc(-c3ccc4c(c3)N([C@H]3C[C@@H](N5CCCCC5)C3)C(=O)C43CCN(C(=O)C4(C)CCN(C(=O)[C@H]5CC[C@H](N(C)c6ccc(C7CCC(=O)NC7=O)cc6)CC5)CC4)CC3)nc(NC3CC3)c21 (mixture of isomers) [Example 150, (3RS)-3-(4-{methyl[(1R,4R)-4-[4-({6-[4-(cyclopropylamino)-3-isopropylimidazo[4,5-c]pyridin-6-yl]-2-oxo-1-[(1S,3S)-3-(piperidin-1-yl)cyclobutyl]spiro[indole-3,4′-piperidin]-1′-yl}carbonyl)-4-methylpiperidine-1-carbonyl]cyclohexyl]amino}phenyl)piperidine-2,6-dione]
< 100	70 to 85	CC(C)n1cnc2cc(-c3ccc4c(c3)N([C@H]3C[C@@H](N5CCCCC5)C3)C(=O)C43CCN(C(=O)CC4CCN(C(=O)C5CCN(c6ccc(C7CCC(=O)NC7=O)cn6)CC5)CC4)CC3)nc(NC3CC3)c21 (mixture of isomers) [Example 162, (3RS)-3-(6-{4-[4-(2-{6-[4-(cyclopropylamino)-3-(propan-2-yl)-3H-imidazo[4,5-c]pyridin-6-yl]-2-oxo-1-[(1S,3S)-3-(piperidin-1-yl)cyclobutyl]-1,2-dihydrospiro[indole-3,4′-piperidin]-1′-yl}-2-oxoethyl)piperidine-1-carbonyl]piperidin-1-yl}pyridin-3-yl)piperidine-2,6-dione]
< 100	70 to 85	CC(C)n1cnc2cc(-c3ccc4c(c3)N([C@H]3C[C@@H](N5CCCCC5)C3)C(=O)C43CCN(C(=O)C4CCN(C(=O)C5CCN(c6ccc(C7CCC(=O)NC7=O)nn6)CC5)CC4)CC3)nc(NC3CC3)c21 (mixture of isomers) [Example 236, (3RS)-3-(6-{4-[4-({6-[4-(cyclopropylamino)-3-(propan-2-yl)-3H-imidazo[4,5-c]pyridin-6-yl]-2-oxo-1-[(1S,3S)-3-(piperidin-1-yl)cyclobutyl]-1,2-dihydrospiro[indole-3,4′-piperidin]-1′-yl}carbonyl)piperidine-1-carbonyl]piperidin-1-yl}pyridazin-3-yl)piperidine-2,6-dione]
